The assay has as its target Lysine-specific demethylase 4C (Homo sapiens) (UniProt Q9H3R0). Nature of the assay: inhibition of JMJD2C H3K9me3 demethylation – biochemical, DELFIA europium, cherry-picked samples, dose response (AID 488835).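 Further: signal is the H3K9me2 demethylation product detected by a dimethyl-specific antibody.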 The settings on record: GST-JMJD2C(1-420).

Each structure is given as a SMILES string.

Lysine-specific demethylase 4C (Homo sapiens), sequence (Q9H3R0 1-420 limits assumed): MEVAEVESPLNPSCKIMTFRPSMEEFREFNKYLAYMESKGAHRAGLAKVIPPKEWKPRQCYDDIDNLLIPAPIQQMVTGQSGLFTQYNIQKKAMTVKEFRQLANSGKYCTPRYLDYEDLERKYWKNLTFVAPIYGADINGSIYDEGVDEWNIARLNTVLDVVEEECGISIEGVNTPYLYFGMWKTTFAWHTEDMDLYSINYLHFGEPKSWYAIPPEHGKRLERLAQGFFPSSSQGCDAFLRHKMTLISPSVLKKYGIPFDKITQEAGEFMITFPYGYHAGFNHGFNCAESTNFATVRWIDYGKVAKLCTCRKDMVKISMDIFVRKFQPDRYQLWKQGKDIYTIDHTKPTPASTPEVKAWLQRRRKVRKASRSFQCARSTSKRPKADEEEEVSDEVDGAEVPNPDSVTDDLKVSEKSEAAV

Consider `C#CCOCCOCCOCCNc1nc(N2CCN(C(=O)CCCCCCCCCCNC(=O)[C@H]([C@@H](C)CC)n3cc(CCCCN=C(N)N)nn3)CC2)nc(N2CCN(C(=O)CCCCCCCCCCNC(=O)[C@H](CCCCN)n3cc(C)nn3)CC2)n1`, for which the AC50 (usually the concentration giving half of the maximal activity seen) is 6.07 µM.
